The results in this text go back to PMC4877593, “Design and Synthesis of Potent in Vitro and in Vivo Anticancer Agents Based on 1-(3′,4′,5′-Trimethoxyphenyl)-2-Aryl-1H-Imidazole” (Scientific Reports, 2016).

Broadly, the IC50 is the point on the concentration scale where inhibition reaches its midpoint.

For one test, the system named is HeLa. The test is described as follows: In vitro antiproliferative activity (MTT), HeLa. The format is cell-based. Particulars: Homo sapiens, tumor cell proliferation, 72 h, mean ± SE. The method, then:
(§1) Human T-cell leukemia (CCRF-CEM and Jurkat) and human B-cell leukemia (SEM) cells were grown in RPMI-1640 medium (Gibco, Milano, Italy). Breast adenocarcinoma (MCF7), human cervix carcinoma (HeLa), and human colon adenocarcinoma (HT-29) cells were grown in DMEM medium (Gibco, Milano, Italy), all supplemented with 115 units/mL penicillin G (Gibco, Milano, Italy), 115 μg/mL streptomycin (Invitrogen, Milano, Italy), and 10% fetal bovine serum (Invitrogen, Milano, Italy). Stock solutions (10 mM) of the different compounds were obtained by dissolving them in dimethyl sulfoxide (DMSO). Individual wells of a 96-well tissue culture microtiter plate were inoculated with 100 μL of complete medium containing 8 × 10^3 cells. The plates were incubated at 37 °C in a humidified 5% CO2 incubator for 18 h prior to the experiments. After medium removal, 100 μL of fresh medium containing the test compound at different concentrations was added to each well in triplicate and incubated at 37 °C for 72 h. The percentage of DMSO in the medium never exceeded 0.25%. This was also the maximum DMSO concentration in all cell-based assays described below. […] Different concentrations of the test compounds were added, and viability was determined 72 h later by the MTT test. For cytotoxicity evaluations in resting PBL cultures, non-adherent cells were resuspended (5 × 10^5 cells/mL) and treated for 72 h with the test compounds, as described above.

Test [1] concerns Jurkat. The test is described as follows: In vitro antiproliferative activity (MTT), Jurkat. Particulars: Homo sapiens, tumor cell proliferation, 72 h, mean ± SE. The format is cell-based. The method, then:
as §1

The test system of another test is RS4;11. Put plainly: In vitro antiproliferative activity (MTT), RS4;11. The format is cell-based. The note with it: Homo sapiens, tumor cell proliferation, 72 h, mean ± SE.
A further test deals with HL-60. Put plainly: In vitro antiproliferative activity (MTT), HL-60. Format: cell-based. The note with it: Homo sapiens, tumor cell proliferation, 72 h, mean ± SE.
Test [2] relates to PBL not stimulated with PHA. The test is described as follows: Cytotoxicity in resting peripheral blood lymphocytes. Format: cell-based. The note with it: Homo sapiens, Lymphocyte, PBL from healthy donors, 72 h, MTT, read-out: IC50 PBLresting. The method, then:
This value was almost 600 times higher than that observed against the Jurkat lymphoblastic cell line.
as §1, with “For cytotoxicity evaluations in resting PBL cultures, non-adherent cells were resuspended (5 × 10^5 cells/mL) and treated for 72 h with the test compounds, as described above.” left out

The test system of test [3] is HeLa cells. Put plainly: Cell cycle distribution by flow cytometry (PI), HeLa. Format: cell-based, human. On the procedure:
(§2) The effects of a 24 h treatment with different concentrations of 4o on cell cycle progression in Jurkat, and HeLa cells were determined by flow cytometry, following propidium iodide (PI) staining of the cells (Fig. 4, Panels A,B). […] In the HeLa cells, the G2/M block was accompanied by a significant reduction of both G1 and S phase cells. In order to determine whether 4o was able to block cells at the mitotic phase (M), cells were stained with an immunofluorescent antibody to p-histone H3, a well known mitotic marker, as well as PI, and analyzed by flow cytometry. As shown in Fig. 4 (Panel C), in which representative histograms are presented, Hela cells arrested in M phase by treatment with 4o are readily distinguished from G2 cells by the higher level of p-histone H3. In particular, treatment with 4o induced an increase in the percentage of mitotic cells from the 2% observed in untreated cells to about 30% with both 50 and 100 nM 4o at 24 h (Fig. 4, Panel D).
(§3) 5 × 10^5 HeLa or Jurkat cells were treated with different concentrations of the test compounds for 24 h. After the incubation period, the cells were collected, centrifuged, and fixed with ice-cold ethanol (70%). […] Samples were analyzed on a Cytomic FC500 flow cytometer (Beckman Coulter). DNA histograms were analyzed using MultiCycle for Windows (Phoenix Flow Systems).
Background: A flow cytometer gives signals particle by particle.

A further test concerns Jurkat cells. The test is described as follows: Cell cycle distribution by flow cytometry (PI), Jurkat. Format: cell-based, human. The note with it: 24 h treatment. The method, then:
as §2, §3

The subject of test [4] is Jurkat. The test is described as follows: ROS production (H2-DCFDA), Jurkat. Format: cell-based, human. The note with it: in comparison with control cells. On the procedure: Figure 7 Assessment of mitochondrial membrane potential (Δψmt) and production of ROS after treatment of HeLa (Panels A,B) or Jurkat (Panels C,D) cells with compound 4o. Cells were treated with the indicated concentration of compound for 24 or 48 h and then stained with the fluorescent probe JC-1 for analysis of mitochondrial potential or H2-DCFDA for the evaluation of ROS levels. Cells were then analyzed by flow cytometry as described in the experimental section.
It is also well known that dissipation of mitochondrial potential is associated with mitochondrial production of ROS[38]. Superoxide anion is produced by mitochondria due to a shift from the normal 4-electron reduction of O2 to a 1-electron reduction when cytochrome c is released from mitochondria upon apoptosis. Therefore, we investigated whether ROS production increased after treatment with compound 4o. We utilized the dye 2,7-dichlorodihydrofluorescein diacetate (H2-DCFDA), which is oxidized to the fluorescent compound dichlorofluorescein (DCF) upon ROS induction.

The subject of test [5] is HeLa cells. The test is described as follows: Western blot analysis of cell cycle, spindle checkpoint and apoptosis proteins. The format is cell-based, human. The method, then:
HeLa cells were incubated in the presence of 4o and, after different times, were collected, centrifuged, and washed two times with ice cold phosphate buffered saline (PBS). The pellet was then resuspended in lysis buffer. After the cells were lysed on ice for 30 min, lysates were centrifuged at 15000 × g at 4 °C for 10 min. The protein concentration in the supernatant was determined using the BCA protein assay reagents (Pierce, Italy). Equal amounts of protein (10 μg) were resolved using sodium dodecyl sulfate-polyacrylamide gel electrophoresis (SDS-PAGE) (Criterion Precast, BioRad, Italy) and transferred to a PVDF Hybond-P membrane (GE Healthcare). Membranes were blocked with a bovine serum albumin solution (5% in Tween PBS 1X), the membranes being gently rotated overnight at 4 °C. Membranes were then incubated with primary antibodies against Bcl-2, PARP, cdc25c, CDC20, ROCK1, MAD2, p-H2AX^Ser139, cyclin B, p-cdc2^Tyr15, […] (all from Cell Signaling), caspase-3 (Alexis), or β-actin (Sigma-Aldrich) for 2 h at room temperature. Membranes were next incubated with peroxidase labeled secondary antibodies for 60 min. All membranes were visualized using ECL Select (GE Healthcare), and images were acquired using an Uvitec-Alliance imaging system (Uvitec, Cambridge, UK). To ensure equal protein loading, each membrane was stripped and reprobed with anti-β-actin antibody.
A general note: A western blot detects proteins with antibodies after separation by electrophoresis.

[6] abbreviates: HeLa, 24 h, all concentrations examined.

Regarding `CCOc1ccc(-c2nccn2-c2cc(OC)c(OC)c(OC)c2)cc1Cl` [Compound 4o, 2-(3′-Chloro-4′-ethoxyphenyl)-1-(3′,4′,5′-trimethoxyphenyl)-1H-imidazole], the IC50 with HeLa is 3.8 ± 0.7 nM; with Jurkat [1], 0.9 ± 0.2 nM; with RS4;11, 1.2 ± 0.7 nM; in the test on HL-60 it was 1.8 ± 0.6 nM; in test [2], more than 10000 nM. Moreover, the “lowest concentration with a rise in G2/M cells” value in the test with HeLa cells [3] (24 h treatment) and in the test with Jurkat cells was 25 nM each time. Further, the “cells arrested in G2/M” value in the test with HeLa cells [3] (highest concentration, 24 h) is recorded as “more than 80%”. In the test with Jurkat [4], the “ROS production (H2-DCFDA)” value is “induced the production of large amounts of ROS”. Also, the “phosphorylation of γH2A.X (Ser139)” value with HeLa cells [5] (HeLa) was “remarkable increase”. For the same compound, the “cyclin B1 expression” value in the test with HeLa cells [5] (HeLa, 50 nM, 24 h) is “marked increase”. In the test with HeLa cells [5] (HeLa, 24 and 48 h), the MAD2 expression entry is “substantially decreased”. For the same compound, the “expression of phosphorylated cdc2” value with HeLa cells [5] (HeLa, 24 and 48 h) was “strongly decreased”. Also, in the test on HeLa cells [5] (HeLa, 50, 100 and 250 nM, 24 and 48 h), the PARP entry is given as “cleavage of PARP”. Also, in the test on HeLa cells [5] (HeLa, 50, 100 and 250 nM, in particular after 48 h), the caspase-3 entry is listed as “activation of the effector caspase-3”. Besides, the “level of cdc20” value in the test on HeLa cells [5] (HeLa, 24 h) is listed as “remained unaffected”. Besides, in the test with HeLa cells [5] (HeLa, 24 h), the “total cdc25c expression” value was “strongly reduced”. Further, the Bcl-2 expression entry in the test on HeLa cells [5] (setting [6]) was “dramatic decrease”. Moreover, the Mcl-1 expression entry with HeLa cells [5] (setting [6]) was “dramatic decrease”. For the same compound, the “phosphorylation of PLK1” value in the test with HeLa cells [5] (HeLa, 24 h, effect disappeared at 48 h) is reported as “marked increase”. The ROCK1 cleavage entry in the test with HeLa cells [5] (HeLa, 48 h) is “cleaved bands of ROCK1 appeared”.
